In patent US20040127440A1, “Methods and compositions for control of bone formation via modulation of neuropeptide Y activity” (BAYLOR COLLEGE OF MEDICINE, priority 2000, published 2004):

Test system: wt mice
Experiment: Intracerebroventricular infusion of NPY in wt mice, histological/histomorphometric analysis of vertebrae
Format: in vivo
Settings: 4 month-old wt mice, icv infusion 0.5 μl/hour (75 ng/hr) for 28 days, compared with PBS-treated mice
Method: Bone specimens were processed as described (Ducy et al., 1999, Genes Dev 13, 1025-1036).
Histological analyses were performed on undecalcified sections stained with the von Kossa reagent and counterstained with Kernechtrot (Amling et al., 1999, Endocrinology, 140: 4982-4987). Double labeling technique with calcein has been described (Amling et al., 1999, Endocrinology, 140: 4982-4987). Static and dynamic histomorphometric analyses were performed according to standard protocols (Parfitt et al., 1987, J Bone Min Res, 2:595-610) using the Osteomeasure Analysis System (Osteometrics, Atlanta). Statistical differences between groups (n=4 to 6) were assessed by Student's test.
Animals were anesthetized with avertin and placed on a stereotaxic instrument (Stoelting). The calvaria was exposed and a 0.7 mm hole was drilled upon bregma. A 28-gauge cannula (Brain infusion kit II, Alza) was implanted into the third ventricle according to the following coordinates: midline, −0.3 AP, 3 mm ventral (0 point bregma). The cannula was secure to the skull with cyanoacrylate, and attached with Tygon tubing to an osmotic pump (Alza) placed in the dorsal subcutaneous space of the animal. The rate of delivery was 0.5 μl/hour (75 ng/hr) of NPY (Sigma) or PBS for 28 days.
The issue of whether NPY binding to its receptor would affect bone mass was examined in this example. […]

neuropeptide Y [NPY]
bone mass: decrease | bone volume: decrease
